Test results reported in US11814445B2, “Cyclic polypeptides for PCSK9 inhibition” (Ra Pharmaceuticals, Inc., priority 2018, dated 2023).
Numbered stars: 1 amine (or outer) side, 2 acyl side, 3 side chain; on linkers, the order of the positions; unused ones are H or OH. Bridge positions count the residues as written; N and C are the ends. Square brackets hold non-standard residues; d marks the D form. Peptide text beside a SMILES is read from it. Phe(3,4,5-F3) = N[C@@H](Cc1cc(F)c(F)c(F)c1)C(=O)O; Phe(4-tBu) = CC(C)(C)c1ccc(C[C@H](N)C(=O)O)cc1; Trp(5-F) = N[C@@H](Cc1c[nH]c2ccc(F)cc12)C(=O)O; X1 = O=C(CCSCc1cccc(CSCCN[*:1])c1)[*:2]; 1Nal = N[C@@H](Cc1cccc2ccccc12)C(=O)O; 2Nal = N[C@@H](Cc1ccc2ccccc2c1)C(=O)O; mXylylene = c1cc(C[*:1])cc(C[*:2])c1; Bta = N[C@@H](Cc1csc2ccccc12)C(=O)O; X3 = O=C(CCSC/C=C/CSCCN[*:1])[*:2]; NMeF = CN[C@@H](Cc1ccccc1)C(=O)O; hCha = N[C@@H](CCC1CCCCC1)C(=O)O; Cha = N[C@@H](CC1CCCCC1)C(=O)O; αMeP = C[C@@]1(C(=O)O)CCCN1; Pip = O=C(O)[C@@H]1CCCCN1; Mpa = O=C(O)CCS

Legend:
Assay type in all cases: binding
PCSK9 [1] = biological target: T1, PCSK9 (Homo sapiens, UniProt Q8NBP7); assay: PCSK9 Alexa FRET Standard assay (displacement of AlexaFluor647 tagged cyclic peptide Reagent A); settings: 0.5 nM PCSK9, 20 nM AF cyclic peptide Reagent A
T1 construct: biotin (biotinylated)
T1 sequence (Q8NBP7 153-692): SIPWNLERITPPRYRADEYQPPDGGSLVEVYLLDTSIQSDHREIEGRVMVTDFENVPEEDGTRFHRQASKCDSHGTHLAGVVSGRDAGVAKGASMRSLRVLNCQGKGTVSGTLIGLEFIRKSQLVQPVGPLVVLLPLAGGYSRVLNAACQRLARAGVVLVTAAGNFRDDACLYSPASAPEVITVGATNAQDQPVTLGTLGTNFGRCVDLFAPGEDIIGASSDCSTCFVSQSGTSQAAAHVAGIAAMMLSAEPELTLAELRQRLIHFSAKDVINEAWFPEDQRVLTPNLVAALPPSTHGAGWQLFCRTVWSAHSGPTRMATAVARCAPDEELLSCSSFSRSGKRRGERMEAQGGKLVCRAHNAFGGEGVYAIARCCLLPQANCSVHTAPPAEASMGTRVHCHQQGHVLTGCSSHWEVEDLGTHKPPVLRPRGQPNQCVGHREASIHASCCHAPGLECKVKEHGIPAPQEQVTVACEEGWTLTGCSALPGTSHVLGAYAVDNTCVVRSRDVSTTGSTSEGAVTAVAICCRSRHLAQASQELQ
Procedure: A solution containing 1 nM biotinylated PCSK9+2.5 nM Lance Streptavidin Europium (Strep-Eu) was made in 50 mM HEPES pH 7.4, 0.15 M NaCl, 5 mM CaCl2), 0.01% BSA, and 0.01% Surfactant P20. A separate solution containing 40 nM of the AlexaFluor tagged cyclic peptide was made in the same buffer system. An Echo was used to transfer 0.750 ul of compound to an assay plate followed by the addition of 15 ul of PCSK9+Stept-Eu and 15 ul of AF peptide. The final assay volume was 30.750 ul containing 0.5 nM PCSK9, 1.25 nM Strep-Eu, and 20 nM AF cyclic peptide. The reaction was incubated at room temperature for at least two hours prior to fluorescence measurements using an Envision Multilabel Reader. IC50 values were determined by fitting data to a sigmoidal dose-response curve using nonlinear regression. Ki was then calculated from the IC50 and the KD of AF cyclic peptide. Counts (B-counts) of the europium-labeled PCSK9 were followed to observe if compounds were […]. A fall off of the B-counts likely indicated a false positive of inhibition. Data from this procedure was reported as “A=‘numerical value’ (nanomolar)”

PCSK9 [2] = biological target: T1, PCSK9; assay: PCSK9 Alexa FRET Plus assay (displacement of AlexaFluor647 tagged cyclic peptide Reagent B); settings: 0.5 nM PCSK9, 960 nM AF cyclic peptide Reagent B
Procedure: A solution containing 1 nM biotinylated PCSK9+2.5 nM Lance Streptavidin Europium (Strep-Eu) was made in 50 mM HEPES pH 7.4, 0.15 M NaCl, 5 mM CaCl2), 0.01% BSA, and 0.01% Surfactant P20. A separate solution containing 1920 nM of the AlexaFluor tagged cyclic peptide was made in the same buffer system. An Echo was used to transfer 0.075 ul of compound plus 0.675 ul of DMSO to each well of an assay plate followed by the addition of 15 ul of PCSK9+Stept-Eu and 15 ul of AF peptide. The final assay volume was 30.750 ul containing 0.5 nM PCSK9, 1.25 nM Strep-Eu, and 960 nM AF cyclic peptide. The reaction was incubated at room temperature for at least two hours prior to fluorescence measurements using an Envision Multilabel Reader. IC50 values were determined by fitting data to a sigmoidal dose-response curve using nonlinear regression. Ki was then calculated from the IC50 and the KD of AF cyclic peptide. Counts (B-counts) of the europium-labeled PCSK9 were followed to observe if compounds were adversely affecting PCSK9. A fall off of the B-counts likely indicated a false positive of inhibition. Data from this procedure was reported as “P=‘numerical value’ (nanomolar)”

[3] = biological target: human PCSK9 / human LDLR EGFa domain (Homo sapiens, UniProt Q8NBP7); assay: TR-FRET assay of inhibition of the PCSK9-LDLR protein-protein interaction; settings: 20 nM human PCSK9, 20 nM human LDLR EGFa domain, 2 hours room temperature
Chain of human PCSK9 / human LDLR EGFa domain (Q8NBP7 153-692): as above
How it was run: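 Half-maximal inhibition was derived by 4-parameter fitting of dose-response TR-FRET data. Each well held 20 nM His-LDLR EGFa, 20 nM avitag-biotinylated PCSK9, Eu-anti-6×His and Ulight-streptavidin (5 nM each) in 50 mM HEPES, 150 mM NaCl, 5 mM CaCl2, 0.01% BSA, 0.01% Surfactant P20, incubated 2 h at room temperature.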

Row | SMILES | IC50 (PCSK9 [1]) | IC50 (PCSK9 [2]) | IC50 [3]
1 | COc1ccc(C[C@@H]2NC(=O)[C@H]([C@@H](C)OC)NC(=O)[C@H]3CCCN3C(=O)[C@H]3Cc4cn(c5ccc(F)cc45)Cc4cn(nn4)-c4cc(cc(c4)CSCCC(=O)N[C@@H](C)C(=O)N[C@H](C)C(=O)N[C@@H](Cc4c[nH]c5ccc(F)cc45)C(=O)N3)CSCCNC(=O)[C@]3(C)CCCN3C2=O)cc1 [Compound 131] | 1 to 100 nM | 1 to 100 nM | –
2 | C[C@@H]1NC(=O)[C@@H]2CCCN2C(=O)[C@H](CC2CCCCC2)NC(=O)[C@H](Cc2c[nH]c3ccc(F)cc23)NC(=O)CNC(=O)[C@H](CCCCN)NC(=O)CCSCc2cccc(c2)CSC[C@@H](C(N)=O)NC(=O)[C@@H]2CCCN2C(=O)[C@H](Cc2ccc(O)cc2)NC1=O [Compound 025] ([Mpa]KG[Trp(5-F)][Cha]PAYPC-NH2; linker 1-10 via mXylylene) | 1 to 100 nM | 1 to 100 nM | 1 to 100 nM
3 | C[C@@H]1NC(=O)[C@@H]2CCCN2C(=O)[C@H](Cc2csc3ccccc23)NC(=O)[C@H](Cc2c[nH]c3ccc(F)cc23)NC(=O)CNC(=O)[C@H](CCCCN)NC(=O)CCSCc2cccc(c2)CSC[C@@H](C(N)=O)NC(=O)[C@@H]2CCCN2C(=O)[C@H](Cc2ccc(O)cc2)NC1=O [Compound 024] ([Mpa]KG[Trp(5-F)][Bta]PAYPC-NH2; linker 1-10 via mXylylene) | 1 to 100 nM | 1 to 100 nM | 1 to 100 nM
4 | C[C@@H]1NC(=O)[C@@H]2CCCN2C(=O)[C@H](CCC2CCCCC2)NC(=O)[C@H](Cc2c[nH]c3ccc(F)cc23)NC(=O)CNC(=O)[C@H](CCCCN)NC(=O)CCSCc2cccc(c2)CSC[C@@H](C(N)=O)NC(=O)[C@@H]2CCCN2C(=O)[C@H](Cc2ccc(O)cc2)NC1=O [Compound 026] ([Mpa]KG[Trp(5-F)][hCha]PAYPC-NH2; linker 1-10 via mXylylene) | 1 to 100 nM | 100 to 500 nM | 1 to 100 nM
5 | C[C@@H]1NC(=O)[C@@H]2CCCN2C(=O)[C@H](Cc2cccc3ccccc23)NC(=O)[C@H](Cc2c[nH]c3ccc(F)cc23)NC(=O)CNC(=O)[C@H](CCCCN)NC(=O)CCSCc2cccc(c2)CSC[C@@H](C(N)=O)NC(=O)[C@@H]2CCCN2C(=O)[C@H](Cc2ccc(O)cc2)NC1=O [Compound 012] ([Mpa]KG[Trp(5-F)][1Nal]PAYPC-NH2; linker 1-10 via mXylylene) | 1 to 100 nM | – | 1 to 100 nM
6 | C[C@@H]1NC(=O)[C@@H]2CCCN2C(=O)[C@H](Cc2c[nH]c3ccc(F)cc23)NC(=O)[C@H](Cc2c[nH]c3ccc(F)cc23)NC(=O)[C@@H](C)NC(=O)[C@H](CCCCN)NC(=O)CCSC/C=C/CSCCNC(=O)[C@]2(C)CCCN2C(=O)[C@H](Cc2ccc(O)cc2)NC1=O [Compound 045] (cyclo(AY[αMeP][X3]K[dA][Trp(5-F)][Trp(5-F)]P)) | 1 to 100 nM | – | 1 to 100 nM

Continued, values first:

Row | IC50 (PCSK9 [1]) | IC50 (PCSK9 [2]) | IC50 [3] | SMILES
7 | 100 to 1000 nM | 1 to 100 nM | 1 to 100 nM | C[C@@H]1NC(=O)CCSCc2cccc(c2)CSCCNC(=O)[C@@H]2CCCN2C(=O)[C@H](Cc2ccccc2)NC(=O)[C@H](C)NC(=O)[C@@H]2CCCN2C(=O)[C@H](Cc2c[nH]c3ccc(F)cc23)NC(=O)[C@H](Cc2c[nH]c3ccc(F)cc23)NC(=O)[C@@H](C)NC1=O [Compound 062] (cyclo(AFP[X1]A[dA][Trp(5-F)][Trp(5-F)]P))
8 | 1 to 100 nM | 1 to 100 nM | 1 to 100 nM | C[C@@H]1NC(=O)[C@@H]2CCCN2C(=O)[C@H](Cc2ccc(C(C)(C)C)cc2)NC(=O)[C@H](Cc2c[nH]c3ccc(F)cc23)NC(=O)CNC(=O)[C@H](CCCCN)NC(=O)CCSCc2cccc(c2)CSC[C@@H](C(N)=O)NC(=O)[C@@H]2CCCN2C(=O)[C@H](Cc2ccc(O)cc2)NC1=O [Compound 016] ([Mpa]KG[Trp(5-F)][Phe(4-tBu)]PAYPC-NH2; linker 1-10 via mXylylene)
9 | 100 to 1000 nM | 100 to 500 nM | – | COc1ccc(C[C@@H]2NC(=O)[C@H]([C@@H](C)O)NC(=O)[C@H]3C[C@@H](F)CN3C(=O)[C@H]3Cc4cn(c5ccc(F)cc45)Cc4cn(nn4)-c4cc(cc(c4)CSCCC(=O)N[C@@H](C)C(=O)N[C@H](C)C(=O)N[C@@H](Cc4c[nH]c5ccc(F)cc45)C(=O)N3)CSCCNC(=O)[C@]3(C)CCCN3C2=O)cc1 [Compound 130]
10 | 1 to 100 nM | 1 to 100 nM | 1 to 100 nM | C[C@@H]1NC(=O)CCSCc2cccc(c2)CSCCNC(=O)[C@@H]2CCCN2C(=O)[C@H](Cc2ccc3ccccc3c2)NC(=O)[C@H](C)NC(=O)[C@@H]2CCCCN2C(=O)[C@H](Cc2c[nH]c3ccc(F)cc23)NC(=O)[C@H](Cc2c[nH]c3ccc(F)cc23)NC(=O)[C@@H](C)NC1=O [Compound 089] (cyclo([2Nal]P[X1]A[dA][Trp(5-F)][Trp(5-F)][Pip]A))
11 | 1 to 100 nM | – | 1 to 100 nM | C[C@@H]1NC(=O)[C@@H]2CCCN2C(=O)[C@H](Cc2cc(F)c(F)c(F)c2)NC(=O)[C@H](Cc2c[nH]c3ccc(F)cc23)NC(=O)CNC(=O)[C@H](CCCCN)NC(=O)CCSCc2cccc(c2)CSC[C@@H](C(N)=O)NC(=O)[C@@H]2CCCN2C(=O)[C@H](Cc2ccc(O)cc2)NC1=O [Compound 014] ([Mpa]KG[Trp(5-F)][Phe(3,4,5-F3)]PAYPC-NH2; linker 1-10 via mXylylene)
12 | 1 to 100 nM | – | 1 to 100 nM | C[C@@H]1NC(=O)CCSCc2cccc(c2)CSCCNC(=O)[C@@H]2CCCN2C(=O)[C@H](Cc2ccccc2)N(C)C(=O)[C@H](C)NC(=O)[C@@H]2CCCN2C(=O)[C@H](Cc2c[nH]c3ccc(F)cc23)NC(=O)[C@H](Cc2c[nH]c3ccc(F)cc23)NC(=O)[C@@H](C)NC1=O [Compound 063] (cyclo(A[NMeF]P[X1]A[dA][Trp(5-F)][Trp(5-F)]P))
